Experimental data reported in paper PMC6017704 (Molecules : A Journal of Synthetic Chemistry and Natural …, 2018).

Tests used:
[1] = tested on: human umbilical vein endothelial cells (PUMC-HUVEC-T1); assay: HUVEC cell anti-proliferation assay (MTT); type: cell-based; conditions: for viability at 1 µM / viability at 10 µM / IC50: Homo sapiens, 72 h, MTT; for viability at 1 µM / viability at 10 µM: read-out: Relative Cell Viability (%) ± SD (n = 3); for viability at 10 µM / inhibition ratio in HUVEC: 10 µM; for IC50: n = 3, read-out: IC50, HUVEC relative cell viability
Source text: A major mediator of VEGF-driven responses in endothelial cells is VEGFR-2, which is considered to play a decisive role in both physiologic and pathologic angiogenesis. The homogeneous time-resolved fluorescence (HTRF) method was used in the assay that determined the inhibitory activities of target compounds against VEGFR-2 kinase. Owing to VEGFR-2 overexpression in human umbilical vein endothelial cells (HUVEC), these target compounds were further evaluated in vitro anti-proliferation activity against HUVEC. MTT assay was used in the cell assay. […] In order to ensure the repeatability of the activity test, we choose to complete biological evaluation under the dark condition.
SV40T transforms human umbilical vein endothelial cells (PUMC-HUVEC-T1) were gifts from Dr. Lihua Ding (Institute of Biotechnology, Beijing, China). MTT Cell Proliferation and Cytotoxicity Assay Kit (#GK-5605, Genview) was used to measure cell viability and proliferation. Metabolically active cells in part by the action of dehydrogenase enzymes reduced the yellow tetrazolium MTT to generate purple reducing equivalents such as NADH and NADPH. The resulting intracellular purple formazan can be solubilized and quantified by spectrophotometer.
For MTT assay, cells were seeded into separate 96-well plates at 5000 cells/well and cultured in an incubator containing 5% CO2 at 37 °C for 24 h. Subsequently, target compounds were dissolved into different concentrations with culture medium from 10 mM stock solutions in DMSO, respectively. Then target compounds were added and incubated at 37 °C for 72 h. All assays were performed in triplicate. The untreated groups were used as a vehicle of control. Following the 72-h incubation, discarded culture medium and washed with PBS once time followed by adding 180 µL of fresh culture medium. Cell viability was quantified with MTT assay. According to the manufacturer instructions, 20 µL of MTT solution that was previously thawed and equilibrated to room temperature was added to each well and plates were incubated at 37 °C for 4 h. Termination of culture, the supernatant was carefully discarded and added 150 µL of Formazan dissolution for 10 min vibration at room temperature. The OD value of each well was measured by a spectrophotometer at 490 nm and the inhibitory rates expressed as percentages of the vehicle control (100%). Data processing: ratio = Vsample/Vcontrol × 100%. Vsample is for compound treatment group while Vcontrol is for solvent control group. The GraphPad Prism 5.0 software was used to draw nonlinear regression model and calculated IC50 values.

[2] = biological target: T1, VEGFR-2 (KDR) kinase (Homo sapiens, UniProt P35968); assay: VEGFR-2 kinase assay (HTRF KinEASE-TK); type: biochemical; conditions: for IC50: HTRF, ATP 3 µM, 40 min, dark condition, n = 3
T1 construct: purchased Carna Biosciences
T1 sequence (P35968 20-1356): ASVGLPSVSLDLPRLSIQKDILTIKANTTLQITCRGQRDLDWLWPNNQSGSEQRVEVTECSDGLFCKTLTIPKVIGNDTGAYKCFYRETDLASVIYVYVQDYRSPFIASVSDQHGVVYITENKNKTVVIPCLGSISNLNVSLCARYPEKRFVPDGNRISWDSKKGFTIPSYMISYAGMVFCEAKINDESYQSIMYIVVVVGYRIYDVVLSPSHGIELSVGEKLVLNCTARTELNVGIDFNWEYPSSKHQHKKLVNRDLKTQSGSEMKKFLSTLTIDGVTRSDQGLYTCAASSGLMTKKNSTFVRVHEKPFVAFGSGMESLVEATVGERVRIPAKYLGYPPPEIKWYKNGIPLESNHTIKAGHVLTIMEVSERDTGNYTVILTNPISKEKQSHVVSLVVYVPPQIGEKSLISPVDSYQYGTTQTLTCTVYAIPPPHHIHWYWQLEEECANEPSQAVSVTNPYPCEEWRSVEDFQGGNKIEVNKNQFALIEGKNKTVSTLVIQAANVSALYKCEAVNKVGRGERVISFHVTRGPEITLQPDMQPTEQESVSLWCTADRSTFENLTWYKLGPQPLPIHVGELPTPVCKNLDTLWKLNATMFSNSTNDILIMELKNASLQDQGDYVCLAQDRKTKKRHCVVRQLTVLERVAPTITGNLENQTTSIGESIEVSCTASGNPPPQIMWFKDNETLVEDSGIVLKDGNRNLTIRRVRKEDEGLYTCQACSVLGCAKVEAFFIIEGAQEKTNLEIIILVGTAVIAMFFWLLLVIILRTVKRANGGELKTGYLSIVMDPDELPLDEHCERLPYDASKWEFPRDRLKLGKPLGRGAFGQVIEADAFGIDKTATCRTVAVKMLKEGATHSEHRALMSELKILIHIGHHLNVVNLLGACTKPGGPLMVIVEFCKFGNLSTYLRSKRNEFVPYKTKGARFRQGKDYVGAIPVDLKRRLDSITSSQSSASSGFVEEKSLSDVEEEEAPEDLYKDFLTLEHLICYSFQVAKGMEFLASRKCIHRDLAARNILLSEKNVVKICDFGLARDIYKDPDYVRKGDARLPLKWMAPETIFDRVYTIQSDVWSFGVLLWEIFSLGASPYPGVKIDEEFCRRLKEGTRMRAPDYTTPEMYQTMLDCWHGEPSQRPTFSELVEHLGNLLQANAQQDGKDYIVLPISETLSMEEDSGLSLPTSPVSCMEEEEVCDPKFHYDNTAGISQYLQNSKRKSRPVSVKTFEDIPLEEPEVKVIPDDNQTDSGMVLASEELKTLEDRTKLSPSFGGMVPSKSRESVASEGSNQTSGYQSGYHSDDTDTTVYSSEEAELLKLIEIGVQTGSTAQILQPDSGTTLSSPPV

Row | Structure (SMILES) | IC50 [2] | increase of VEGFR-2 activity compared with TM2 ([2]; relative to TM2) | viability at 1 µM [1] | viability at 10 µM [1] | inhibition ratio in HUVEC [1] | IC50 [1]
1 | CNC(=O)c1ccccc1Sc1ccc2c(/C=C/c3ccccn3)n[nH]c2c1 [Axitinib, reference compound] | – | – | 80 ± 6.64% | 53.2 ± 9.11% | – | –
2 | CNC(=O)c1ccccc1Sc1ccc2c(N=Nc3c(OC)cc(N)cc3OC)n[nH]c2c1 [TM2, 2-(3-((4-amino-2,6-dimethoxyphenyl)diazenyl)-1H-indazol-6-ylthio)-N-methylbenzamide] | – | – | 107 ± 1.29% | 94.4 ± 5.01% | ≤ 20% | –
3 | CNC(=O)c1ccccc1Sc1ccc2c(N=Nc3ccc(N)cc3OC)n[nH]c2c1 [TM3, 2-(3-((4-amino-2-methoxyphenyl)diazenyl)-1H-indazol-6-ylthio)-N-methylbenzamide] | 195 ± 1.11 nM | more than ten times | 125 ± 8.92% | 84.1 ± 6.83% | ≤ 20% | –
4 | CNC(=O)c1ccccc1Sc1ccc2c(N=Nc3ccc(N(C)C)cc3)n[nH]c2c1 [TM4, 2-(3-((4-(dimethylamino)phenyl)diazenyl)-1H-indazol-6-ylthio)-N-methylbenzamide] | 135 ± 1.25 nM | – | 94.1 ± 1.89% | 82.8 ± 5.32% | ≤ 20% | –
5 | CNC(=O)c1ccccc1Sc1ccc2c(N=Nc3[nH]c(C)cc3C)n[nH]c2c1 [TM9, 2-(3-((3,5-dimethyl-1H-pyrrol-2-yl)diazenyl)-1H-indazol-6-ylthio)-N-methylbenzamide] | 201 ± 1.26 nM | – | 68.54 ± 0.29% | 32.2 ± 1.99% | – | 2180 nM
6 | CNC(=O)c1ccccc1Sc1ccc2c(N=Nc3cc(C)[nH]c3C)n[nH]c2c1 [TM10, 2-(3-((2,5-dimethyl-1H-pyrrol-3-yl)diazenyl)-1H-indazol-6-ylthio)-N-methylbenzamide] | 44 ± 1.15 nM | – | 99.29 ± 0.78% | 66.2 ± 4.43% | – | –
7 | CNC(=O)c1ccccc1Sc1ccc2c(N=Nc3ccc(C)[nH]3)n[nH]c2c1 [TM11, N-methyl-2-(3-((5-methyl-1H-pyrrol-2-yl)diazenyl)-1H-indazol-6-ylthio)benzamide] | 330 ± 1.14 nM | – | 67.03 ± 0.19% | 31 ± 0.61% | exceeding 60% | 2150 nM

The next lines start with results.

Row | IC50 [2] | increase of VEGFR-2 activity compared with TM2 ([2]; relative to TM2) | Structure (SMILES) | viability at 1 µM [1] | viability at 10 µM [1] | inhibition ratio in HUVEC [1] | IC50 [1]
8 | 2290 ± 1.17 nM | – | CNC(=O)c1ccccc1Sc1ccc2c(N=Nc3cccn3C)n[nH]c2c1 [TM6, N-methyl-2-(3-((1-methyl-1H-pyrrol-2-yl)diazenyl)-1H-indazol-6-ylthio)benzamide] | 97 ± 10.4% | 19.3 ± 3.82% | exceeding 60% | 5030 nM
9 | 123 ± 1.08 nM | – | CNC(=O)c1ccccc1Sc1ccc2c(N=Nc3ccc[nH]3)n[nH]c2c1 [TM7, 2-(3-((1H-pyrrol-2-yl)diazenyl)-1H-indazol-6-ylthio)-N-methylbenzamide] | 84.4 ± 4.35% | 39.1 ± 2.49% | exceeding 60% | 5730 nM
10 | 158 ± 1.14 nM | – | CNC(=O)c1ccccc1Sc1ccc2c(N=Nc3cc(C)n(C)c3C)n[nH]c2c1 [TM8, N-methyl-2-(3-((1,2,5-trimethyl-1H-pyrrol-3-yl)diazenyl)-1H-indazol-6-ylthio)benzamide] | 92.3 ± 9.05% | 61.3 ± 10.9% | – | –
